Read-outs that look alike come from different tables or passages of the source.
Experiments:
Assay type in all cases: cell-based, Staphylococcus aureus
MRSA USF655 = experiment: Kirby-Bauer agar disk diffusion; design: Kirby-Bauer Disc Diffusion Test Results: unit not given here; conditions: for Kirby-Bauer Disc Diffusion Test Results: Table 5; for zone of inhibition at 20 µg/disc: Staphylococcus aureus, MRSA
Summary of the method: (§1)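 Agar disk diffusion against β-lactamase-producing MRSA clinical isolates, using 6-mm air-dried disks loaded with 20 μg test compound. Growth-inhibition zone diameter (mm) read after 24 h; values are means of triplicate experiments.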

MRSA USF652 = experiment: Kirby-Bauer agar disk diffusion; design: Kirby-Bauer Disc Diffusion Test Results: unit not given here; conditions: for Kirby-Bauer Disc Diffusion Test Results: Table 5, beta-lactamase producing strain; for zone of inhibition at 20 µg/disc: Staphylococcus aureus, MRSA
Summary of the method: as §1

MRSA USF656 = experiment: Kirby-Bauer agar disk diffusion; design: Kirby-Bauer Disc Diffusion Test Results: unit not given here; conditions: for Kirby-Bauer Disc Diffusion Test Results: Table 5, beta-lactamase producing strain; for zone of inhibition at 20 µg/disc: Staphylococcus aureus, MRSA
Summary of the method: as §1

MRSA USF658 = experiment: Kirby-Bauer agar disk diffusion; design: Kirby-Bauer Disc Diffusion Test Results: unit not given here; conditions: for Kirby-Bauer Disc Diffusion Test Results: Table 5, beta-lactamase producing strain; for zone of inhibition at 20 µg/disc: Staphylococcus aureus, MRSA
Summary of the method: as §1

MRSA USF654 = experiment: Kirby-Bauer agar disk diffusion; design: Kirby-Bauer Disc Diffusion Test Results: unit not given here; conditions: for Kirby-Bauer Disc Diffusion Test Results: Table 5, beta-lactamase producing strain; for zone of inhibition at 20 µg/disc: Staphylococcus aureus, MRSA
Summary of the method: as §1

MRSA USF657 = experiment: Kirby-Bauer agar disk diffusion; design: Kirby-Bauer Disc Diffusion Test Results: unit not given here; conditions: for Kirby-Bauer Disc Diffusion Test Results: Table 5, beta-lactamase producing strain; for zone of inhibition at 20 µg/disc: Staphylococcus aureus, MRSA
Summary of the method: as §1

MRSA USF659 = experiment: Kirby-Bauer agar disk diffusion; design: Kirby-Bauer Disc Diffusion Test Results: unit not given here; conditions: for Kirby-Bauer Disc Diffusion Test Results: Table 5, beta-lactamase producing strain; for zone of inhibition at 20 µg/disc: Staphylococcus aureus, MRSA
Summary of the method: as §1

MRSA USF653 = experiment: Kirby-Bauer agar disk diffusion; design: Kirby-Bauer Disc Diffusion Test Results: unit not given here; conditions: for Kirby-Bauer Disc Diffusion Test Results: Table 5, beta-lactamase producing strain; for zone of inhibition at 20 µg/disc: Staphylococcus aureus, MRSA
Summary of the method: as §1

[1] = system: cultures of S. aureus and MRSA; experiment: electron microscopy of cell morphology
Text: The structure-bioactivity patterns observed for these N-thiolated lactams are highly atypical for a β-lactam antibiotic. The compounds are lipohilic and devoid of the typical acidic ring functionality required for recognition by the penicillin binding proteins. The implication that the lactams set forth in FIGS. 1A-1I are not acting in the same manner or on the same enzymes as the traditional β-lactam drugs is supported by electron microscopy experiments, which confirm that cell morphology is unaffected by the lactam of FIG. 1D (Greenwood, D. et al. Science, 1969, 163:1076).
(§2) In fact, only small isolated colonies of surviving cells can be found, all of which appear perfectly normal in size, shape, smoothness, and clustering behavior. […] Pulse radiolabeling experiments indicate that the lactam of FIG. 1D blocks the bacterial uptake of ^3H-uridine and ^3H-leucine at low (MIC) levels (Lim, D. V. et al. Microbiology, 1977, 33:328; Champney, W. S. and C. G. Tober Antimicrob. Agents and Chemother., 2000, 44:1413).
Light microscopy and scanning electron microscopy experiments have enabled us to look for cell wall damage in cultures of S. aureus and MRSA grown in the presence of N-methylthio lactam (FIG. 11F) over a range of different concentrations and cell growth conditions. […] Those cells that survive the treatment appear normal (coccal) and fully mature.

Staph aureus 525 = experiment: Kirby-Bauer agar disk diffusion; conditions: Table 5
MRSA cells = experiment: light microscopy after Gram staining; conditions: for cells Gram-stained purple: Example 5, MRSA cells grown in presence of the substance
Text: as §2
(FIGS. 14A-14C) S. aureus is a Gram-positive microorganism, and thus reacts with Gram stain to produce a purple coloration due to binding of the stain to the peptidoglycan. 100% of MRSA cells grown either in the absence or presence of the lactam of FIG. 11F take on a purple color when Gram stained (top and center images, next page). In contrast, for MRSA cells treated with penicillin G or vancomycin (cell wall synthesis inhibitors), only about 30% of the cells are Gram-stained purple, with the remainder of the cells appearing pink (bottom image, next page) due to morphologically altered walls. This is strong evidence that the N-methylthio lactams are not affecting late stage events in cell wall biosynthesis.

[2] = read-out: The Zone of Inhibition

COC1C(=O)N(SC)C1c1ccccc1Cl (racemic) [FIG. 11F]
Kirby-Bauer Disc Diffusion Test Results (MRSA USF655): 26
Kirby-Bauer Disc Diffusion Test Results (MRSA USF652): 30
Kirby-Bauer Disc Diffusion Test Results (MRSA USF656): 26
Kirby-Bauer Disc Diffusion Test Results (MRSA USF658): 28
Kirby-Bauer Disc Diffusion Test Results (MRSA USF654): 26
Kirby-Bauer Disc Diffusion Test Results (MRSA USF657): 28
Kirby-Bauer Disc Diffusion Test Results (MRSA USF659): 27
Kirby-Bauer Disc Diffusion Test Results (MRSA USF653): 30
cell counts ([1]; Example 5, cultures grown in the presence of the lactam): Highly reduced cell counts
alterations in the shapes or sizes of remaining cells ([1]; Example 5, light and scanning electron microscopy, range of concentrations and growth conditions): in no cases have we found alterations in the shapes or sizes
Kirby-Bauer Disc Diffusion Test Results (Staph aureus 525): 26
cells Gram-stained purple (MRSA cells): 100%

CN[C@H](CC(C)C)C(=O)N[C@H]1C(=O)N[C@@H](CC(N)=O)C(=O)N[C@H]2C(=O)N[C@H]3C(=O)N[C@H](C(=O)N[C@H](C(=O)O)c4cc(O)cc(O)c4-c4cc3ccc4O)[C@H](O)c3ccc(c(Cl)c3)Oc3cc2cc(c3O[C@@H]2O[C@H](CO)[C@@H](O)[C@H](O)[C@H]2O[C@H]2C[C@](C)(N)[C@H](O)[C@H](C)O2)Oc2ccc(cc2Cl)[C@H]1O [Vancomycin, reference compound]
zone of inhibition at 20 µg/disc (MRSA USF655; [2]): 19 mm
zone of inhibition at 20 µg/disc (MRSA USF655; read-out: Zones of Inhibition): 19 mm
Kirby-Bauer Disc Diffusion Test Results (MRSA USF655): 19
zone of inhibition at 20 µg/disc (MRSA USF652; [2]): 23 mm
zone of inhibition at 20 µg/disc (MRSA USF652; read-out: Zones of Inhibition): 19 mm
Kirby-Bauer Disc Diffusion Test Results (MRSA USF652): 19
zone of inhibition at 20 µg/disc (MRSA USF656; [2]): 20 mm
zone of inhibition at 20 µg/disc (MRSA USF656; read-out: Zones of Inhibition): 21 mm
Kirby-Bauer Disc Diffusion Test Results (MRSA USF656): 21
zone of inhibition at 20 µg/disc (MRSA USF658; [2]): 20 mm
zone of inhibition at 20 µg/disc (MRSA USF658; read-out: Zones of Inhibition): 18 mm
Kirby-Bauer Disc Diffusion Test Results (MRSA USF658): 18
zone of inhibition at 20 µg/disc (MRSA USF654; [2]): 20 mm
zone of inhibition at 20 µg/disc (MRSA USF654; read-out: Zones of Inhibition): 19 mm
Kirby-Bauer Disc Diffusion Test Results (MRSA USF654): 19
zone of inhibition at 20 µg/disc (MRSA USF657; [2]): 21 mm
zone of inhibition at 20 µg/disc (MRSA USF657; read-out: Zones of Inhibition): 18 mm
Kirby-Bauer Disc Diffusion Test Results (MRSA USF657): 18
zone of inhibition at 20 µg/disc (MRSA USF659; [2]): 20 mm
zone of inhibition at 20 µg/disc (MRSA USF659; read-out: Zones of Inhibition): 18 mm
Kirby-Bauer Disc Diffusion Test Results (MRSA USF659): 18
zone of inhibition at 20 µg/disc (MRSA USF653; [2]): 20 mm
zone of inhibition at 20 µg/disc (MRSA USF653; read-out: Zones of Inhibition): 18 mm
Kirby-Bauer Disc Diffusion Test Results (MRSA USF653): 18
cell morphology ([1]; Example 1, electron microscopy, high magnification): wrinkled, deformed, or even sheared
coloration upon Gram staining (MRSA cells; Example 1): pink coloration
cells Gram-stained purple (MRSA cells): about 30%

Reference: patent publication US6946458B2, “N-thiolated beta-lactams: novel antibacterial agents for methicillin-resistant Staphylococcus aureus” (University of South Florida, priority 1999, dated 2005)
